SMILES strings stand for the structures. Marks after values point to notes of the source that are not given here.

For one series, the system named is frontal cortex. As to the kind of experiment: Histology of brain (haematoxylin/eosin). The settings on record: 30 mg/kg, compared to controls. The series is classed as in vivo, mice. From the text: (§1) Following the acute death or the sacrifice of the animals (after 5-h observation period by dislocation of the spine), brains were taken. These were fixed in 4% buffered formalin and then sampled and incorporated into the paraffin (Leica ASP300 processor, Histoline TEC2900 incorporator; Leica Microsystems Srl, Buccinasco, Milano, Italy). Subsequently, the cut (performed with the Leica HistoCore autocut microtome; Leica Microsystems Srl, Buccinasco, Milano, Italy) was designed to create sections with a thickness of 5 µm for each sample.
For histological investigations, the sections were stained with haematoxylin/eosin and then observed under optical microscope (Nikon Eclipse E90i; Nikon, Roma, Italy).

In a further series the test system is HSP90. As to the kind of experiment: Immunohistochemistry, frontal cortex: HSP90. The format is in vivo, mice. The settings on record: vs control.
From the text: as §1
(§2) On 5-µm-thick paraffined […] sections, we evaluated the expression of a panel of markers: heat shock proteins (HSP27, HSP70, HSP90), SMAC/DIABLO, NF-kB, iNOS, NOX-2, NT, 8-OHDG.
(§3) We used a detection system composed of a biotinylated secondary antibody and HRP-conjugated streptavidin (4plus HRP Universal Detection, Biocare Medical). […] In the pictures (sections of the frontal cortex; Figure 3, Figure 4 and Figure 5) to evaluate the variation in the expression of markers (Smac, NOX2, iNOS, 8-OHdG, NT, HSP27, HSP70, HSP90) following treatments, the change in intensity of brown colour (staining of the immunohistochemical technique) in the control and treated tissue was measured. Quantification of Smac, NOX2, iNOS, 8-OHdG, NT, HSP27, HSP70 and HSP90 positive-stained areas was performed by the ImageJ software (imagej.nih.gov/ij/ Accessed date 12 May 2020). […]

The subject of the next series is mice. Kind of series: Lethality during the observation period. The series is classed as in vivo. The conditions noted are these: n=6 mice. As for the experimental part:
The effects of (±)cis-4,4′-DMAR, (±)trans-4,4′-DMAR and their co-administration were investigated by a protocol widely used in studies of “safety pharmacology” for the preclinical characterization of new molecules in rodents. This protocol includes a series of observational behavioural tests carried out in a consecutive manner that monitor the animal responses up to 5 h after compound injections. In the present study, we reported the observation of physiological (sweating, salivation, core temperature) and neuro-behavioural (detection of psychomotor agitation, spontaneous and stimulated aggressiveness, convulsions) changes occurring in mice after injection of (±)cis-4,4′-DMAR, (±)trans-4,4′-DMAR and their co-administration. Before pharmacological treatment the mouse was placed on a square plate (30 cm× 30 cm) raised from the ground (20 cm) and left free to move on the plate for 10 min (habituation period). The animal was then injected with the vehicle, substances alone ((±)cis-4,4′-DMAR or (±)trans-4,4′-DMAR) or in cis + trans co-administration and placed on the plate. From this moment, the recording time of the physiological and neuro-behavioural responses started, and these were detected in 5-min sessions.
After the first 5 min, the animal was removed from the plate; the body core temperature was then measured, and the aggression tests were performed. The 5-min observation period was repeated at 15–30–60–90–120–180–240–300. Psychomotor agitation in the mouse was not simply related to an increase in spontaneous locomotion itself, but by an “unusual hyperactivity” which was characterised by rapid and sudden horizontal displacements in all directions, sustained turning behaviour, involuntary falls from the high plate during the evaluation of the tests, stereotyped movements and rearing activity. Mouse sweating and salivation were reported only if present or not. The core temperature was determined using a probe (1 mm diameter) that was gently inserted after lubrication with liquid Vaseline into the rectum of the mouse (to about 2 cm) and left in position until the temperature stabilised (about 10 s). The probe was connected to a digital thermometer. Spontaneous aggressive response was measured based on the number of times a mouse bit a grey cloth put in front of its snout. During the test, each mouse was free to move within the cage. In the case of stimulated aggressiveness, each mouse was manually restrained and held in a supine position following which an object was brought near the mouth. For both spontaneous and stimulated aggressive behaviour tests, a grey cloth was placed in front of the nose of each mouse 10 consecutive times (score 0/10 not aggressive, score 10/10 very aggressive). Convulsions were defined as a loss of righting reflexes for at least 5 s, combined with the presence of body tremors and clonic or tonic limb movements. Deaths caused by 4-4’-DMAR injection occurring during the observation period (5 h) were also reported as frequency (%) and time of death (min). Experiments were conducted inside the LARP (Centralised Preclinical Research Laboratory, University of Ferrara, Ferrara, Italy) in a thermo-stated (temperature 20–22 °C, humidity about 45–55%) and light controlled (about 150 lux) room, in which there was a background noise of about 40 ± 4 dB. The experiments, conducted in blind by trained observers working together in pairs, were videotaped and eventually analysed off-line by a different trained operator. The experiments were performed between 8:30 a.m. and 2:00 p.m.
Sweating and salivation were expressed as frequency (e.g., % of animals that developed symptoms); psychomotor agitation was expressed as frequency (% of animals) and duration (total time in mins). Core temperature values were expressed as the difference between control temperature (before injection) and temperature following drug administration (Δ°C). […]

In a further series the test system is NOX-2. Kind of series: Immunohistochemistry, frontal cortex: NOX-2. The format is in vivo, mice. The settings on record: vs control.
From the text: as §1, §2, §3

`Cc1ccc(C2OC(N)=NC2C)cc1` (stereo not drawn) [cis-4,4’-DMAR, 4-methyl-5-(4-methylphenyl)-4,5-dihydrooxazol-2-amine]: the “Histology of the frontal cortex (edema, vacuolization areas)” value with frontal cortex is on record as “mild edema”. Further, the “Immunoreactivity of HSP90 in the frontal cortex” value with HSP90 (10 and 30 mg/kg) is on record as “reduced”. Also, in the series on mice (30 mg/kg i.p.), the “Lethality Frequency % (n° of mice)” value is 50% (3), the “Lethality Surviving mice % (n° of mice)” value was 50% (3) and the “Lethality Time of death” value was found to be 59.3 ± 2.3 min. In the series on mice (60 mg/kg i.p.), the “Lethality Frequency % (n° of mice)” value is on record as 100% (6), the “Lethality Surviving mice % (n° of mice)” value was 0% (0), the “Lethality Time of death” value is listed as 31.9 ± 5.6 min and the “Lethality Time of death (min)” value is reported as 31.9 ± 5.6 ^d min. The “Immunoreactivity of NOX-2 in the frontal cortex” value in the series on NOX-2 (60 mg/kg) is recorded as “did not affect”. In the series with NOX-2 (10 and 30 mg/kg), the “Immunoreactivity of NOX-2 in the frontal cortex” value is given as “reduced”.

Take `Cc1ccc(C2OC(N)=NC2C)cc1` (stereo not drawn) [trans-4,4’-DMAR, 4-methyl-5-(4-methylphenyl)-4,5-dihydrooxazol-2-amine]: the “Expression of HSP90 in the frontal cortex” value in the series with HSP90 (30 mg/kg alone) is reported as “reduced”.

The record behind these values is publication PMC8395767, “Worsening of the Toxic Effects of (±)Cis-4,4′-DMAR Following Its Co-Administration with (±)Trans-4,4′-DMAR: Neuro-Behavioural, Physiological, Immunohistochemical and Metabolic Studies in Mice” (International Journal of Molecular Sciences, 2021).
